Patent US11365181B2, “P-phenylenediamine derivative as potassium channel regulator and preparation method and medical application thereof” (Shanghai Zhimeng Biopharma, Inc., priority 2018, dated 2022)
Where two headings read alike, the source gives them in different places.

Key:
[1] = target: KCNQ2 potassium channel (CHO-KCNQ2 cells) (Homo sapiens (Human), UniProt O43526); assay: Activity test of potassium ion channel opener (FDSS/μCELL detection, FluxOR potassium ion channel assay); format: cell-based; conditions: for EC50: CHO-KCNQ2 cells, FluxOR fluorescence, FDSS/μCELL; for increase of activity versus 6-membered ring comparison compound (ratio of EC50): 03043 vs compound A, 03058 vs compound B
Procedure: Activity Test of Potassium Ion Channel Opener (FDSS/ρCELL Detection)
Cell preparation: CHO-KCNQ2 cells were cultured in a 175 cm^2 culture flask, and when the cells was grown to a density of 60-80%, the culture medium was removed, washed with 7 mL PBS (Phosphate Buffered Saline) once, then 3 mL 0.25% Trypsin was added to digest. After the digestion was completed, 7 mL culture medium (90% DMEM/F12+10% FBS+500 μg/mL G418) was added to neutralize, centrifugated for 3 minutes at 800 rpm. The supernatant was aspirated, then 5 mL culture medium was added to resuspend, and then the cells were counted.
Cell plating: The density to 3×10^4/well was adjusted according to the results of cell counting. After standing at room temperature for 30 minutes, the cells were placed in a 37° C. CO2 incubator and incubated overnight for 16-18 hours. The cell density reached about 80%.
Fluorescent dye incubation: The cell culture medium was discarded, 80 μL/well loading buffer was added, and the cells were incubated in dark at room temperature for 60 minutes.
Compound incubation: the loading buffer was discarded, 80 μL/well prepared compound solution was added, incubated at room temperature and in dark for 20 minutes.
Fluorescence data collection: FDSS/μCELL instrument for real-time fluorescence is used for signal recording, wherein excitation wavelength was 480 nm, emission wavelength was 540 nm, and signals were recorded 1 times per second, after baseline was recorded for 10 seconds, the addition of 20 μL/well stimulation buffer was started, and then the signal was continuously record until the end of 180 seconds.
loading buffer: 10 mL/plate, the preparation method was as follows:
Test buffer sample: 100 mL/plate, the preparation method was as follows:
Stimulation buffer: 5 mL/plate, the preparation method was as follows:
The above buffer was from a commercially available kit, the kit name was FluxOR potassium ion channel assay, the manufacturer's brand was Invitrogen, the article number was F10017, the lot number was 913728.
20 mM DMSO compound mother liquor was prepared, 10 μL of 20 mM compound mother liquor was took and added into 20 μL DMSO solution, serially diluted 3 times to 8 intermediate concentrations; then the middle concentration of the compound was took to the test buffer, 200 times dilution to get the final concentration to be tested, 80 μL was took and added to the test plate.
The highest test concentration was 100 μM, followed by […], 33.33, 11.11, 3.70, 1.23, 0.41, 0.137, 0.045 μM, total 8 concentrations. Each concentration 3 replicate holes.
This concentration of DMSO had no effect on the KCNQ2 potassium channel.
Experimental data was analyzed by Excel 2007 and GraphPad Prism 5.0 software, and the ratio of 180 seconds was calculated to calculate the excitement effect. The excitement effect of the compound is calculated by the following formula: […]
Environment: Temperature about 25° C.
Reagent: FluxOR™ Detection Kit (Invitrogen, Cat #[…])
The experimental data in the report might meet the following criteria: Z′ Factor>0.5
2. Determination Results: See Table 1 for Details, where the Smaller EC50 was, the Higher the Activity of the Corresponding Compound was.
References for the above test methods:
(2) Jinfeng Yue et al. Acta Pharmacologica Sinica, 2016, 37:105-110.

[2] = Pharmacokinetics of compounds 03043 and 03044 in male SD rats; format: in vivo; conditions: for AUC(0-inf) / AUC(0-t) / Cmax / half-life / Tmax: rat, plasma
Description: (§1) Study on the Pharmacokinetics of Compounds 03043 and 03044
(§2) 1) Research purpose: To obtain the pharmacokinetic characteristics of compounds 03043 and 03044 in male SD rats and their blood-brain barrier (BBB) penetration
(§3) 15 healthy male SD rats (weight range of 200-250 g) were taken and divided into 3 groups, 3 rats were used for intravenous administration in group 1, 3 rats were used for oral administration in group 2, and 9 rats were used for the determination of cerebral blood ratio after oral administration in group 3 (3 rats/time point). Group 2 and group 3 were fasted for more than 12 hours. Intravenous: 1 mg/kg, oral 5 mg/kg, at time point 0.083 (only group 1), 0.25 (only groups 1 and 2), 0.5 (only groups 1 and 2), 1.2 (only groups 1 and 2). After 4, 8 and 24 h (only group 1 and group 2), blood was collected by jugular vein or cardiac puncture, and at least 0.3 mL of whole blood was collected into an EDTA-K2 anticoagulant tube. Within half an hour, the plasma was collected by centrifugation (6000 revolutions, 8 minutes, 4° C.), frozen at −20° C. for later use. At the same time, brain tissues were collected from group 3 (time points were 1, 4, and 8 h respectively), washed with normal saline, blotted dry with absorbent paper, weighed, and frozen at −20° C. for use. (Compound preparation: 5% DMAC+10% Solutol HS 15+85% Saline was used to prepare a solution having a concentration of iv 0.2 mg/mL and po 0.3 mg/mL).
(§4) Experimental results: According to the blood drug concentration data obtained, the non-compartmental model of WinNonlin® 7.0 software (Pharsight, USA) was used to calculate the pharmacokinetic parameters after administration.

[3] = Plasma and brain concentration / cerebral blood ratio (BBB penetration) in male SD rats after single oral administration; format: in vivo; conditions: rat; for concentration at 1 h / Kp at 1 h: 1 h after single oral administration 5 mg/kg; for concentration at 4 h / Kp at 4 h: 4 h after single oral administration 5 mg/kg; for concentration at 8 h / Kp at 8 h: 8 h after single oral administration 5 mg/kg; for Kp / Kp at 1 h / Kp at 4 h / Kp at 8 h: brain/plasma; for Kp: 5 mg/kg, at each time point (1, 4, 8 h), oral administration
Description: as §1, §2, §3

[4] = Pharmacokinetic study of compound 03058 in male ICR mice; format: in vivo
Procedure: Pharmacokinetic Study of Compound 03058
1) Research purpose: To obtain the pharmacokinetic characteristics of compound 03058 in male ICR mice
6 healthy male ICR mice (body weight range of 18-22 grams) were taken, divide them into 2 groups (3 mice/group, and 3 mice/time point), fasted for more than 12 hours (only oral administration group), and administered intravenously(0.05 mg/kg), orally (1 mg/kg), at time points of 0.083 (intravenous administration only), 0.25, 0.5, 1, 2, 4, 6 (only oral administration). After 8 and 24 h, blood were collected by cardiac puncture. At least 0.3 mL of whole blood was transferred to the EDTA-K2 anticoagulation tube, and within half an hour, the plasma was collected by centrifugation (6000 rpm, 8 minutes, 4° C.), and frozen at −20° C. for use. (Compound configuration: 5% DMAC+10% Solutol HS 15+85% Saline was used to prepare a solution having a concentration of iv 0.01 mg/mL and po 0.1 mg/mL).
as §4

[5] = brain, read-out: Brain concentration
[6] = plasma, read-out: Plasma concentration
[7] = mouse, Intravenous 0.05 mg/kg, plasma
[8] = mouse, po, Gavage 1 mg/kg, plasma

KCNQ2 potassium channel (CHO-KCNQ2 cells), sequence (O43526 whole entry): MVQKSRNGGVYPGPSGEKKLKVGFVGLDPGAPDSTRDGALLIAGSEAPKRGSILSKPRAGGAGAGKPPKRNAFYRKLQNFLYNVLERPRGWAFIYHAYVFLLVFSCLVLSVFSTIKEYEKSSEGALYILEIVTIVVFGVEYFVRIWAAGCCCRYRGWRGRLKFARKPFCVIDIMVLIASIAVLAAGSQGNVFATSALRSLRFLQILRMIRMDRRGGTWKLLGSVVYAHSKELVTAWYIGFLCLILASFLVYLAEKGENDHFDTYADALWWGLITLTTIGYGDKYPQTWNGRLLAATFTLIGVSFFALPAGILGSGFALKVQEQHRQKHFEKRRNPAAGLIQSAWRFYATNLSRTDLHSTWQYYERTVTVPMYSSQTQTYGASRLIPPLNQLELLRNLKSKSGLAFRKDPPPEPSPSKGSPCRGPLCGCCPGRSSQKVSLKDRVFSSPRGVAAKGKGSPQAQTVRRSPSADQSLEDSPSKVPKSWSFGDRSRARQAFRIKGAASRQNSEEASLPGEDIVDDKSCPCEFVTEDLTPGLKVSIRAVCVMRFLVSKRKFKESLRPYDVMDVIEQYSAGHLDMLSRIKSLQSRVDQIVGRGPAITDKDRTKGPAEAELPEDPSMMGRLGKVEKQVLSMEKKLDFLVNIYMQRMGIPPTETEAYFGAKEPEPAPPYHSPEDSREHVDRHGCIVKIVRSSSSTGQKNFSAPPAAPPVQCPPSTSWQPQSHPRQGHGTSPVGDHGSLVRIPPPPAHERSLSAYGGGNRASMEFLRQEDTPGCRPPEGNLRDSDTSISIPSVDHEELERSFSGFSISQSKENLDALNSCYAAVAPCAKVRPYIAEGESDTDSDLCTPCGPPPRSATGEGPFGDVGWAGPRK

For `Cc1cc(N2CCCc3ccsc3C2)cc(C)c1NC(=O)CC(C)(C)C` [Compound 03026, N-(2,6-dimethyl-4-(4,5,6,8-tetrahydro-7H-thieno[2,3-c]azepin-7-yl)phenyl)-3,3-dimethylbutanamide], the EC50 [1] was 88 nM.
`Cc1cc(N2CCCc3cscc3C2)cc(C)c1NC(=O)CC(C)(C)C` [Compound 03027, N-(2,6-dimethyl-4-(4,6,7,8-tetrahydro-5H-thieno[3,4-c]azepin-5-yl)phenyl)-3,3-dimethylbutanamide] showed an EC50 [1] of 147 nM.
`Cc1cc(N2CCCc3sccc3C2)cc(C)c1NC(=O)CC(C)(C)C` [Compound 03028, N-(2,6-dimethyl-4-(4,6,7,8-tetrahydro-5H-thieno[3,2-c]azepin-5-yl)phenyl)-3,3-dimethylbutanamide] showed an EC50 [1] of 272 nM.
For `Cc1cc(N2CCCc3cccnc3C2)cc(C)c1NC(=O)CC(C)(C)C` [Compound 03029, N-(2,6-dimethyl-4-(5,6,7,9-tetrahydro-8H-pyrido[2,3-c]azepin-8-yl)phenyl)-3,3-dimethylbutanamide], the EC50 [1] was 14700 nM.
With `Cc1cc(N2CCCCc3sccc32)cc(C)c1NC(=O)CC(C)(C)C` [Compound 03034, (N-(2,6-dimethyl-6-(1-tert-butylacetyl)aniline))-(5,6,7,8-tetrahydro-4H)-thieno [3,2]azaanthracene] the EC50 [1] was 71 nM.
For `Cc1cc(N2CCCCc3ncccc32)cc(C)c1NC(=O)CC(C)(C)C` [Compound 03037, N-(2,6-Dimethyl-4-(6,7,8,9-tetrahydro-5H-pyrido[32-b]azepin-5-yl)phenyl)-3,3-dimethylbutanamide], the EC50 [1] was 6480 nM.
Molecule `Cc1cc2c(s1)CCCCN2c1cc(C)c(NC(=O)CC(C)(C)C)c(C)c1` [Compound 03039, N-(2,6-dimethyl-4-(2-methyl-5,6,7,8-tetrahydro-4H-thieno[3,2-b]azepin-4-yl)phenyl)-3,3-dimethylbutyramide] has an EC50 [1] of 409 nM.
With `Cc1cc(N2CCCc3sc(Cl)cc3C2)cc(C)c1NC(=O)CC(C)(C)C` [Compound 03043, N-(4-(2-chloro-4,6,7,8-tetrahydro-5H-thieno[3,2-c]azepin-5-yl)-2,6-dimethylphenyl)-3,3-dimethylbutanamide] the “increase of activity versus 6-membered ring comparison compound (ratio of EC50)” value [1] was “about 2.83 times”, the EC50 [1] was 23 nM and the F ([2]; Gavage 5 mg/kg) was 12.79%. For the same molecule, the AUC(0-inf) ([2]; Intravenous 1 mg/kg) was 964 ng·h/mL, the AUC(0-t) ([2]; Intravenous 1 mg/kg) was 957 ng·h/mL and the Cmax ([2]; Intravenous 1 mg/kg) was 2040 ng/mL. For the same molecule, the half-life ([2]; Intravenous 1 mg/kg) was 1.42 h, the AUC(0-inf) ([2]; po, Gavage 5 mg/kg) was 1110 ng·h/mL and the AUC(0-t) ([2]; po, Gavage 5 mg/kg) was 612 ng·h/mL. The Cmax ([2]; po, Gavage 5 mg/kg) was 129 ng/mL, the Tmax ([2]; po, Gavage 5 mg/kg) was 0.25 h and the half-life ([2]; po, Gavage 5 mg/kg) was 12.3 h. The concentration at 1 h [3, 5] was 67.1 ng/g, the concentration at 4 h [3, 5] was 65.7 ng/g and the concentration at 8 h [3, 5] was 20 ng/g. The Kp [3] was 1 to 2.4, the Kp at 1 h [3] was 2.4 and the Kp at 4 h [3] was 1.5. It also gave a Kp at 8 h [3] of 1, a concentration at 1 h [3, 6] of 32.2 ng/mL and a concentration at 4 h [3, 6] of 47.9 ng/mL. For the same molecule, the concentration at 8 h [3, 6] was 20.8 ng/mL.
With `Cc1cc(N2CCCc3cc(Cl)sc3C2)cc(C)c1NC(=O)CC(C)(C)C` [Compound 03044, N-(4-(2-chloro-4,5,6,8-tetrahydro-7H-thieno[2,3-c]azepin-7-yl)-2,6-dimethylphenyl)-3,3-dimethylbutanamide] the EC50 [1] was 57 nM, the F ([2]; Gavage 5 mg/kg) was 13.9% and the AUC(0-inf) ([2]; Intravenous 1 mg/kg) was 1060 ng·h/mL. For the same molecule, the AUC(0-t) ([2]; Intravenous 1 mg/kg) was 1040 ng·h/mL, the Cmax ([2]; Intravenous 1 mg/kg) was 1740 ng/mL and the half-life ([2]; Intravenous 1 mg/kg) was 1.8 h. For the same molecule, the AUC(0-inf) ([2]; po, Gavage 5 mg/kg) was 889 ng·h/mL, the AUC(0-t) ([2]; po, Gavage 5 mg/kg) was 723 ng·h/mL and the Cmax ([2]; po, Gavage 5 mg/kg) was 118 ng/mL. It also gave a Tmax ([2]; po, Gavage 5 mg/kg) of 0.67 h, a half-life ([2]; po, Gavage 5 mg/kg) of 7.08 h and a concentration at 1 h [3, 5] of 251 ng/g. It also gave a concentration at 4 h [3, 5] of 102 ng/g, a concentration at 8 h [3, 5] of 67.6 ng/g and a Kp [3] of 1 to 2.4. It also gave a Kp at 1 h [3] of 2.2, a Kp at 4 h [3] of 2.1 and a Kp at 8 h [3] of 1.7. It also gave a concentration at 1 h [3, 6] of 112 ng/mL, a concentration at 4 h [3, 6] of 50.2 ng/mL and a concentration at 8 h [3, 6] of 41.3 ng/mL.
For `Cc1cc(N2CCCCc3sc(Cl)cc32)cc(C)c1NC(=O)CC(C)(C)C` [Compound 03049, N-(4-(2-chloro-5,6,7,8-tetrahydro-4H-thieno[3,2-b]azepin-4-yl)-2,6-dimethylphenyl)-3,3-dimethylbutanamide], the EC50 [1] was 260 nM.
For `Cc1cc(N2CCOc3cc(F)ccc3C2)cc(C)c1NC(=O)CC(C)(C)C` [Compound 03058, N-(4-(8-fluoro-2,3-dihydrobenzo[f][1,4]oxazepin-4(5H)-yl)-2,6-dimethylphenyl)-3,3-dimethylbutanamide], the “increase of activity versus 6-membered ring comparison compound (ratio of EC50)” value [1] was 12.25 times, the EC50 [1] was 8 nM and the F ([4]; Gavage 1 mg/kg) was 30.47%. The AUC(0-inf) [4, 7] was 7.2 ng·h/mL, the AUC(0-t) [4, 7] was 7.2 ng·h/mL and the Cmax [4, 7] was 15.1 ng/mL. For the same molecule, the half-life [4, 7] was 0.73 h, the AUC(0-inf) [4, 8] was 43.6 ng·h/mL and the AUC(0-t) [4, 8] was 43.6 ng·h/mL. It also gave a Cmax [4, 8] of 17 ng/mL, a Tmax [4, 8] of 0.5 h and a half-life [4, 8] of 1.05 h.
`Cc1cc(N2CCCOc3cc(F)ccc32)cc(C)c1NC(=O)CC(C)(C)C` [Compound 03059, N-(4-(8-fluoro-3,4-dihydrobenzo[b] [1,4]oxazepine-5(2H)-yl)-2,6-dimethylphenyl)-3,3-dimethylbutanamide] showed an EC50 [1] of 860 nM.
For `Cc1cc(N2CCOc3cc(F)ccc32)cc(C)c1NC(=O)CC(C)(C)C` [Compound 03060, N-(2,6-dimethyl-6-(1-tert-butylacetyl)aniline)) 4-(7-fluoro-2,3-dihydro-4H-benzo[1,4] oxazine], the EC50 [1] was greater than 100000 nM.
Molecule `Cc1ccc2c(c1)COCCN2c1cc(C)c(NC(=O)CC(C)(C)C)c(C)c1` [Compound 03066] has an EC50 [1] of 49 nM.
`Cc1cc(N2CCc3cc(F)ccc3C2)cc(C)c1NC(=O)CC(C)(C)C` [Compound B, reference compound] showed an EC50 [1] of 98 nM.
For `O=C(Nc1ccc(Cl)nc1)c1ccc(F)cc1` [ZTZ240, reference compound], the EC50 [1] was 8230 nM.
